Results: US4681871A, “Pharmacologically active peptides” (priority 1979, dated 1987)
Ends that are not written are not given here. Peptide text beside a SMILES is read from it.

Legend:
[1] = test system: longitudinal muscle plexusmyentericus preparation of guinea pig ileum; assay: opiate-like activity on electrically stimulated guinea pig ileum preparation; type: cell-based; conditions: guinea pig intestine preparation; naloxon-reversible restriction of contractions
Pronase E (Merck) = assay: resistance against proteases (Pronase E incubation, then opiate test); type: in vitro ADME; conditions: 0.02 mg Pronase E, tris-buffer pH 8, 37° C., 1 to 4 hours; compared with control without enzyme
Description: As proof of the resistance against proteases we would like to cite an example: 0.3 mg β-casomorphin-7 was incubated in 0.6 ml tris-buffer pH 8 with 0.02 mg Pronase E (Merck) at 37° C. for 1 to 4 hours. After the end of the incubation, the mixture, for the purpose of destroying the Pronase, was heated at 95° C. for 15 minutes.

Compound	opiate-like activity [1]	loss of opiate activity after protease incubation (Pronase E (Merck))
COC(=O)CNC(=O)[C@@H]1CCCN1C(=O)[C@H](Cc1ccccc1)NC(=O)[C@@H]1CCCN1C(=O)[C@@H](N)Cc1ccc(O)cc1 [Tyr-Pro-Phe-Pro-Gly-methyl ester] (H-YPFPG-OMe)	strong specific opiate-like activity	–
COC(=O)CNC(=O)[C@@H]1CCCN1C(=O)[C@H](Cc1ccccc1)NC(=O)[C@@H]1CCCN1 [end product 4b, Pro-Phe-Pro-Gly-metester] (H-PFPG-OMe)	did not result in any opiate-like activity	–
YPFPGPI [β-casomorphin-7, Tyr-Pro-Phe-Pro-Gly-Pro-Ile]	–	did not result in any loss of opiate activity
casein	neither the casein itself nor its chloroform/methanol (65/35, vol/vol) extracts, shows a pharmacological, in this case an opiate-like, activity	–
methionine-enkephalin [reference compound]	–	completely lost the opiate activity
